Assay results taken from publication PMC11345332, “Expression, Purification and Biophysical Characterisation of Klebsiella Pneumoniae Protein Adenylyltransferase: A Systematic Integration of Empirical and Computational Modelling Approaches” (The Protein Journal, 2024).

What was measured:
[1] = target: T1, KpPrAT (Klebsiella pneumoniae protein adenylyltransferase) (Klebsiella variicola, UniProt B5XQE2); experiment: fluorescence emission blue shift and intensity increase; assay type: binding; design: gene ydiU; synthetic gene in pET-11a (NdeI/BamHI), N-terminal His6 tag kept (no cleavage described), E. coli T7 cells, Ni-IMAC, about 54 kDa; settings: 10 µM mant-ATP, 2 µM protein, 20 mM sodium phosphate pH 7.4, 20 °C, with or without 5 mM MgCl2; labelled compound
T1 sequence (B5XQE2 whole entry): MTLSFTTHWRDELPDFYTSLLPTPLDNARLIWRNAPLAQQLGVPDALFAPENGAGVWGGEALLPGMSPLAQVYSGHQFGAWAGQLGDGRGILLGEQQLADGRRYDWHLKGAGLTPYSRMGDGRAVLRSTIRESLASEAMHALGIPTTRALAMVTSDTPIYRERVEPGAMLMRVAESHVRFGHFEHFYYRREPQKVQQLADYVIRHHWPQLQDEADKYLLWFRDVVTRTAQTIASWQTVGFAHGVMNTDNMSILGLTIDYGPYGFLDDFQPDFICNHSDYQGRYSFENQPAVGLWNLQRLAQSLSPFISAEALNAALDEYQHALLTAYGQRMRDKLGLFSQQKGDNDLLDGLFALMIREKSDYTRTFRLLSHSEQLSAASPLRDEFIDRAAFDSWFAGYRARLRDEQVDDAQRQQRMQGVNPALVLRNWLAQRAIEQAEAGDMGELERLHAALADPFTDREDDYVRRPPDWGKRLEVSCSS

[2] = target: T1, KpPrAT (Klebsiella pneumoniae protein adenylyltransferase); experiment: biochemical; design: gene ydiU
Text: isothermal titration calorimetry on KpPrAT (Klebsiella pneumoniae protein adenylyltransferase)

Row | SMILES | fluorescence emission blue shift and intensity increase [1] | Kd [2] [nM]
1 | CNc1ccccc1C(=O)O[C@H]1[C@@H](O)[C@H](n2cnc3c(N)ncnc32)O[C@@H]1COP(=O)(O)OP(=O)(O)OP(=O)(O)O [mant-ATP, 2ʹ/3’-O-(N-Methylanthraniloyl) adenosine 5ʹ-triphosphate] | An increase in fluorescence intensity and blue shift occurs when KpPrAT binds to mant-ATP | 
2 | Nc1ncnc2c1ncn2[C@@H]1O[C@H](COP(=O)(O)OP(=O)(O)OP(=O)(O)O)[C@@H](O)[C@H]1O [ATP] |  | 2930
